Reference: patent publication EP1644371B1, “PYRAZOLOISOQUINOLINE DERIVATIVES AS KINASE INHIBITORS” (Aventis Pharmaceuticals Inc., priority 2003, dated 2005)
pIC50: −log10 of the molar value. Where two headings read alike, the source gives them in different places.

Experiments:
Assay type in all cases: cell-based
[1] = tested on: LPS-stimulated heparinized whole human blood; experiment: Release of IL1β, TNFα and IL6 in LPS-stimulated heparinized whole human blood; details: 24 h
Method: In another assay, heparinized whole human blood was preincubated for 1 h with different concentrations of the compounds and then stimulated with LPS for 24 h. Commercially available test kits were used to measure the release of IL1β, TNFα and IL6 in the supernatant after 24 h, and the IC50 for the given compound was determined.

[2] = tested on: human peripheral blood lymphocytes; experiment: Cytotoxicity by LDH release
Method: (§1) The pyrazoloisoquinoline derivatives according to the invention were tested for inhibitory activity against NIK in various in vitro assay systems. In this connection, human peripheral blood lymphocytes were preincubated for 1 h with different concentrations of the compounds and then stimulated for 24 h with LPS or IL1 β. After that, a commercially obtainable ELISA test kit was used to measure the release of TNFα in the culture supernatant, and the IC50 for the given compound was determined. The cytotoxicity was measured by way of LDH release using a commercially obtainable test kit and the LD50 for the given compound was determined.

[3] = tested on: LPS-stimulated human peripheral blood lymphocytes; experiment: Cytokine release in LPS-stimulated human peripheral blood lymphocytes (ELISA); details: Lymphocyte
Method: as §1

[4] = tested on: IL1 β-stimulated human peripheral blood lymphocytes; experiment: Cytokine release in IL1β-stimulated human peripheral blood lymphocytes (ELISA); details: Lymphocyte
Method: as §1, with “After that, a commercially obtainable ELISA test kit was used to measure the release of TNFα in the culture supernatant, and the IC50 for the given compound was determined.” left out

[5] = IL1 β-stimulated human peripheral blood lymphocytes (Table 2)
[6] = LPS-stimulated human peripheral blood lymphocytes (Table 1)
[7] = 1 h preincubation, 24 h stimulation, read-out: TNFα release IC50

Row | SMILES | pIC50 ([1]; read-out: IL1β release IC50) | pIC50 ([1]; read-out: IL6 release IC50) | pIC50 ([1]; read-out: TNFα release IC50) | Cytotoxicity LD50 [2, 5] [µM] | Cytotoxicity LD50 [2, 6] [µM] | pIC50 [3, 7] | pIC50 ([3]; read-out: IL6 release IC50) | pIC50 [4, 7] | pIC50 ([4]; read-out: IL6 release IC50)
1 | c1ccc(-c2nc3c(-c4ccccc4)n[nH]c3c3ccccc23)cc1 [Example 1, 3,5-Diphenyl-1H-pyrazolo[4,3-c]isoquinoline] | 4.48 | < 4.00 | 4.90 | >100 | > 100 | 5.72 | 4.10 | 5.30 | 4.10
2 | Cc1n[nH]c2c1nc(-c1cccc(O)c1)c1ccccc12 [Example 3, 3-(3-Methyl-1H-pyrazolo[4,3-c]isoquinolin-5-yl)phenol] | 4.54 | < 4.00 | 5.30 | > 100 | > 100 | 5.12 | 4.10 | 5.10 | < 4.00
3 | COc1cccc(-c2nc3c(C)n[nH]c3c3ccccc23)c1 [Example 2, 5-(3-Methoxyphenyl)-3-methyl-1H-pyrazolo[4,3-c]isoquinoline] | 5.89 | 5.15 | 5.92 | > 100 | > 100 | 5.05 | < 4.00 | 4.46 | < 4.00
